The test system of assay [1] is Rattus norvegicus. The assay can be described thus: Antihypertensive activity in Rattus norvegicus Sprague-Dawley (rat) assessed as inhibition of angiotensin-1-induced increase in blood pressure at 30 ug/kg, iv administered 5 min before angiotensin-1 challenge. It counts as functional.
The subject of assay [2] is Rattus norvegicus. The assay can be described thus: Antihypertensive activity in Rattus norvegicus Sprague-Dawley (rat) assessed as inhibition of angiotensin-1-induced increase in blood pressure at 10 ug/kg, iv administered 5 min before angiotensin-1 challenge. It is filed as functional.

Each structure is given as a SMILES string. Active and inactive are the calls of the source. No cut-off for these calls is given here.

As to `CC(=O)SCCC(=O)N1C(=O)[C@@H](Cc2ccccc2)C[C@H]1C(=O)O`, in the assay with Rattus norvegicus [1], the inhibition in vivo at 0.03 mg/kg stood at 20%. In addition, in the assay with Rattus norvegicus [2], the inhibition in vivo at 0.01 mg/kg is 13%.

In the case of `C[C@H](CS)C(=O)N1CCC[C@H]1C(=O)O` [CAPTOPRIL], in the assay with Rattus norvegicus [2], the inhibition in vivo at 0.01 mg/kg was found to be 60%.

In the case of `CC(=O)SC[C@@H](C)C(=O)N1C(=O)[C@@H](Cc2ccccc2)C[C@H]1C(=O)O`, the inhibition in vivo at 0.03 mg/kg with Rattus norvegicus [1] is 60%. Moreover, the inhibition entry in the assay on Rattus norvegicus [2] is “inactive”.

With `CC(=O)SC[C@@H](C)C(=O)N1C[C@@H](Cc2ccccc2)C[C@H]1C(=O)O`, in the assay on Rattus norvegicus [2], the inhibition in vivo at 0.01 mg/kg is 22%.

These data come from ChEMBL document CHEMBL3045674, “Synthesis of N-[3-(acetylthio)alkanoyl] and N-[3-mercaptoalkanoyl]-4-(s)-(phenylmethyl) pyroglutamic acids and prolines as potent ACE inhibitors” (2009).
